Measured values reported in PubChem BioAssay (NCI).
Where “and” joins values, the source holds several entries; their conditions need not be identical. Identical values can stand only once.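 A five-concentration, 48-hour dose response in 96-well plates underlies each endpoint, interpolated linearly between surrounding concentrations. The concentration for 50% growth inhibition is given as GI50. TGI is the concentration that stops growth completely.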

What was measured:
Test in all cases: inhibition of tumour cell growth, NCI panel, 48 h
PC-3 prostate = system: PC-3 prostate
SK-MEL-5 melanoma = system: SK-MEL-5 melanoma
MOLT-4 leukemia = system: MOLT-4 leukemia
ACHN renal = system: ACHN renal
CCRF-CEM leukemia = system: CCRF-CEM leukemia
SNB-19 CNS = system: SNB-19 CNS
RXF 393 renal = system: RXF 393 renal
M14 melanoma = system: M14 melanoma
TK-10 renal = system: TK-10 renal
HL-60(TB) leukemia = system: HL-60(TB) leukemia

Compound	GI50 (PC-3 prostate) [µM]	TGI (PC-3 prostate)	GI50 (SK-MEL-5 melanoma) [µM]	TGI (SK-MEL-5 melanoma)	GI50 (MOLT-4 leukemia) [µM]	TGI (MOLT-4 leukemia)	GI50 (ACHN renal) [µM]	TGI (ACHN renal)	GI50 (CCRF-CEM leukemia) [µM]	TGI (CCRF-CEM leukemia)	GI50 (SNB-19 CNS) [µM]	TGI (SNB-19 CNS)	GI50 (RXF 393 renal)	TGI (RXF 393 renal)	GI50 (M14 melanoma)	TGI (M14 melanoma)	GI50 (TK-10 renal) [µM]	TGI (TK-10 renal)	GI50 (HL-60(TB) leukemia) [µM]	TGI (HL-60(TB) leukemia) [µM]
COc1cc(C(=O)c2cnc(-c3c[nH]c4cccc(C)c34)[nH]2)cc(OC)c1OC	0.00537	> 100 µM	0.00365	0.0221 µM and 0.0366 µM	0.0378	> 100 µM	0.00846	26.7 µM	0.00824	> 100 µM	0.00505	> 100 µM								
Cc1ccc(NCCNCC(C)(C)O)c2c(=O)c3ccc(Cl)cc3sc12	1.35	2.71 µM	1.58	2.95 µM							1.67	3.27 µM	1.26 µM	2.61 µM	1.66 µM	3.26 µM	2.17	3.89 µM	1.45	3.17
CN(C)CCCN1c2ccccc2Sc2ccc(C(F)(F)F)cc21	1.67	4 µM and 28.6 µM	1.57		1.86	4.19 µM and 39.2 µM	1.81	3.85 µM and 28.8 µM and 28.2 µM	1.92	5 µM and 38.5 µM and 39 µM	1.71	3.27 µM and 28.8 µM and 30.3 µM	1.32 µM				1.77	3.24 µM and 28.8 µM and 31.6 µM	1.82	
CC(C)(O)C1COC2=C1C(=O)c1ccccc1C2=O (stereo not given)		> 100 µM		57.4 µM		71.2 µM		> 100 µM		> 100 µM		> 100 µM				> 100 µM				44.9
O=C(Nc1ccn(C2CC(O)C(COC(c3ccccc3)(c3ccccc3)c3ccccc3)O2)c(=O)n1)c1ccccc1 (stereo not given)		5.35 µM		4.67 µM		5.1 µM		9.31 µM		6.2 µM		14.2 µM		6.99 µM		4.57 µM				5.52
COc1cc(C2CC(c3ccccc3)=NN2C=O)ccc1Oc1ccnc2cc(Cl)ccc12 (stereo not given)	2.8	> 100 µM					17.4	> 100 µM			26.6	> 100 µM	15.4 µM	47.6 µM	5.83 µM	> 100 µM				
COC(=O)[C@@]12OC[C@]34[C@H]([C@@H](O)[C@@H]1O)[C@@]1(C)CC(=O)C(O)=C(C)[C@@H]1C[C@H]3OC(=O)[C@H](OC(=O)/C=C(\C)C(C)C)[C@@H]24	0.02	0.0512 µM and 0.0128 µM and 0.028 µM		0.00333 µM and 0.0278 µM			0.02	0.026 µM and 0.0124 µM and 0.0245 µM	0.00224	0.0184 µM and 0.182 µM	0.00464	0.0214 µM and 0.145 µM		0.0303 µM and 0.0297 µM		0.0109 µM	0.0235	0.0719 µM and 0.0333 µM		0.00583
COc1cc(-c2nc(-c3ccccc3)c(-c3ccccc3)[nH]2)cc(OC)c1O	17.9	50.2 µM	14.2	27.6 µM	17.1	64.9 µM	14.2	33.1 µM	23.4	70.4 µM	20.8	52.9 µM	14.7 µM	31.2 µM			25.1	50.5 µM	31.5	> 100
Clc1ccc(C=Nc2ccc(-c3nc4ccccc4[nH]3)cc2)cc1	> 100	> 100 µM	45	> 100 µM			> 100	> 100 µM	> 100	> 100 µM	55.6	> 100 µM	> 100 µM	> 100 µM	> 100 µM	> 100 µM	> 100	> 100 µM		
C=CCC(N[C@@H](CO)c1ccccc1)c1ccc2ccccc2n1 (stereo not given in full)	> 100	> 100 µM					> 100	> 100 µM	46.1	> 100 µM			> 100 µM	> 100 µM	> 100 µM	> 100 µM	> 100	> 100 µM	12.3	51.5
Cc1cc(N2CCC(N3CCCC3)CC2)nc(/N=C(\N)Nc2ccc(Cl)c(Cl)c2)n1	2.65	8.26 µM	1.65	3.02 µM	3.32	> 100 µM	1.71	3.22 µM	3.28	> 100 µM	2.14	5.63 µM	1.62 µM	3.09 µM	1.81 µM	3.67 µM	1.93	3.72 µM		
C/C=C/C=C/c1cc2cc3c(c(O)c2c(=O)[nH]1)C1(CC3)C(O)=c2c(=O)c3c(=O)cc(OC)c(=O)c=3c(=O)c2=C1O (stereo not given)		0.654 µM						1.7 µM and 16.5 µM		1.13 µM and 11.2 µM		14.5 µM and 13.9 µM	0.622 µM and 3.36 µM	3.13 µM and 10.4 µM	0.315 µM and 0.977 µM	3.24 µM and 9.06 µM		4.13 µM and 16.4 µM	0.669	3.95
Fc1ccccc1CN1COc2c(cc(Cl)c3cccnc23)C1		10.6 µM		3.75 µM		0.758 µM		10.3 µM				9.23 µM		63.6 µM		12 µM		18 µM		10.4
Nc1nc(SCc2ccccc2CCl)c2[nH]cnc2n1	25.1	> 100 µM	10.8	23.7 µM	21.4	> 100 µM	18.6	74.6 µM	28.5	> 100 µM	15.8	35.5 µM	14 µM	28.7 µM	17.8 µM	52.8 µM				
O=P(CN1CCOCC1)(c1ccccc1)c1ccccc1				> 100 µM		> 100 µM		> 100 µM		> 100 µM		> 100 µM		> 100 µM		> 100 µM		> 100 µM		> 100
COC(=O)c1c(C)nc(C)c2c1C(=O)C(Br)=C(NCc1ccccc1)C2=O	2.73	10.9 µM	1.47	2.85 µM	3.09	10.8 µM	3.08	9.97 µM	3.11	36.8 µM	3.04	9.23 µM	3.08 µM	9.69 µM	2.06 µM	4.81 µM	10.1	21.9 µM		
COc1ccc(OC)c2c(C(C)=O)cccc12		> 100 µM		> 100 µM		> 100 µM		> 100 µM		> 100 µM		> 100 µM		> 100 µM				> 100 µM		> 100
O=c1ccc(N=Nc2ccccc2)ccc1O		28.6 µM		23.6 µM		25.1 µM		26 µM				> 100 µM		> 100 µM		28.5 µM		60.2 µM		51.2
COc1ccc(/C=C/C(=O)c2c(-c3ccccc3)nn(C)c(=O)c2N2CC2C)cc1 (stereo not given)				> 100 µM		> 100 µM		> 100 µM		73.9 µM		> 100 µM		93.6 µM		> 100 µM		> 100 µM		60.2
O=C(O)CNc1ccc2c(c1)Cc1cc(Br)ccc1-2		> 100 µM		25.8 µM				> 100 µM		> 100 µM		> 84.6 µM		> 94.6 µM		> 77.1 µM		> 84.6 µM		> 100
COc1cccc(/C=C2\N=C(c3ccccc3)OC2=O)c1		> 100 µM		> 100 µM				> 100 µM		58.8 µM		> 100 µM		> 100 µM		> 100 µM		> 100 µM		26
O=C(/C=C/c1ccc(O)c(O)c1)N1CCN(c2ccc(Cl)cc2)CC1	4.67	31.1 µM	2.65	10.2 µM	3.47	> 100 µM	4.01	38.2 µM	1.96	45.1 µM	5.17	98.1 µM			8.98 µM	47.1 µM	3.59	26.2 µM		
NC(=NCCCCCCN=C(N)/N=C(\N)Nc1ccc(Cl)cc1)/N=C(\N)Nc1ccc(Cl)cc1	1.74	6.38 µM	0.908	1.73 µM	1.09	2.84 µM	2.18	8.36 µM			1.46	5.97 µM	1.88 µM	8.11 µM	1.71 µM	6 µM	2.13	8.9 µM	1.1	2.49
CCCN1C(=O)/C(=C/c2ccc(SC(F)(F)F)cc2)SC1=Nc1ccc(OC)cc1	15.6	> 50 µM	17.3	> 50 µM	> 50	> 50 µM	5.53	11.8 µM			17.4	> 50 µM	5.35 µM	16.9 µM	18.6 µM	> 50 µM	7.1	19.2 µM	> 50	> 50
CC(C)=C[C@@H]1C[C@H](C)[C@H]2CC[C@H](C)c3c(O)c(OC4OC(C)C(O)C(O)C4O)c(C)c1c32 (stereo not given in full)			12	24.7 µM	8.35	23.9 µM	14.1	27.1 µM	12.8	26.3 µM	15.7	29.2 µM	11 µM	23.2 µM	11.5 µM	24.9 µM	16.3	30.2 µM	10.4	25.7
COc1cc2c(oc(=O)c3c4occc4cc(OC)c23)c2cccc(O)c12				> 100 µM		> 100 µM		> 100 µM		> 100 µM		> 100 µM		> 100 µM		> 100 µM		> 100 µM		> 100
